Test results reported in US6737383B1, “Herbicidal oxadiazolidines” (priority 1999, dated 2004).

How the values were obtained:
bedstraw = test: Test B pre/postemergence bedstraw; format: in vivo, Galium aparine
In short: (§1)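 Test chemicals in a non-phytotoxic solvent mixture with surfactant were sprayed preemergence onto planted seeds and postemergence onto plants 2 to 18 cm tall (1- to 4-leaf stage). After twelve to sixteen days in a greenhouse, injury was visually rated against untreated controls from 0 (no effect) to 10 (complete control).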

blackgrass = test: Test B pre/postemergence blackgrass; format: in vivo, Alopecurus myosuroides
In short: as §1

surinam grass = test: Test B pre/postemergence surinam grass; format: in vivo, Brachiaria decumbens
In short: as §1

corn = test: Test B pre/postemergence corn; format: in vivo, Zea mays
In short: as §1

giant foxtail = test: Test B pre/postemergence giant foxtail; format: in vivo, Setaria faberii
In short: as §1

morningglory = test: Test B pre/postemergence morningglory; format: in vivo, Ipomoea hederacea
In short: as §1

pigweed = test: Test B pre/postemergence pigweed; format: in vivo, Amaranthus retroflexus
In short: as §1

rape = test: Test B pre/postemergence rape; format: in vivo, Brassica napus
In short: as §1

soybean = test: Test B pre/postemergence soybean; format: in vivo, Glycine max
In short: as §1

sugar beet = test: Test B pre/postemergence sugar beet; format: in vivo, Beta vulgaris
In short: as §1

velvetleaf = test: Test B pre/postemergence velvetleaf; format: in vivo, Abutilon theophrasti
In short: as §1

purple nutsedge = test: Test B pre/postemergence purple nutsedge; format: in vivo, Cyperus rotundus
In short: as §1

rice = test: Test B flood test rice; format: in vivo, Oryza sativa
In short: (§2)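 Flood test on plants grown to the 2-leaf stage; treated plants kept in greenhouse twelve to sixteen days, then visually rated against controls on a 0 (no effect) to 10 (complete control) scale.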

smallflower flatsedge = test: Test B flood test smallflower flatsedge; format: in vivo, Cyperus difformis
In short: as §2

duck salad = test: Test B flood test duck salad; format: in vivo, Heteranthera limosa
In short: as §2

bamyardgrass = test: Test B flood test barnyardgrass; format: in vivo, Echinochloa crus-galli
In short: as §2

[1] = Preemergence, Rate 62 g/ha, scale of 0 to 10 where 0 is no effect and 10 is complete control
[2] = Preemergence, Rate 125 g/ha, 0 is no effect, 10 is complete control
[3] = Preemergence, Rate 250 g/ha, scale 0 to 10, 0 is no effect, 10 is complete control
[4] = Preemergence, Rate 500 g/ha, scale of 0 to 10 where 0 is no effect and 10 is complete control
[5] = Rate 62 g/ha, Postemergence, scale of 0 to 10 where 0 is no effect and 10 is complete control
[6] = Rate 125 g/ha, Postemergence, scale 0 to 10
[7] = Rate 500 g/ha, Postemergence, scale 0 to 10
[8] = Rate 62 g/ha, headed Pre-emergence (flood test species), scale 0 to 10 (0 no effect, 10 complete control)
[9] = Rate 125 g/ha, Pre-emergence, flood test species, scale 0 to 10 where 0 is no effect and 10 is complete control
[10] = Rate 250 g/ha, Pre-emergence, flood-test species, scale 0 to 10, 0 is no effect, 10 is complete control
[11] = Rate 500 g/ha, headed Pre-emergence (flood test species), scale 0 to 10 (0 no effect, 10 complete control)

Cc1ccccc1-n1c(=O)on(C(=O)N(c2ccccc2F)C(C)C)c1=O [Compound 204]
7: Bedstraw plant response rating (bedstraw; [7]) | Blackgrass plant response rating (blackgrass; [7]) | Giant foxtail plant response rating (giant foxtail; [1]) | Redroot pigweed plant response rating (pigweed; [7]) | Soybean plant response rating (soybean; [7])
9: Giant foxtail plant response rating (0 to 10 scale) (giant foxtail; [2])
0: Bedstraw plant response rating (bedstraw; [1]) | Bedstraw plant response rating (0 to 10 scale) (bedstraw; [2]) | Bedstraw plant response rating (bedstraw; [3]) | Plant response rating, Bedstraw (bedstraw; [4]) | Bedstraw plant response rating (bedstraw; [5]) | Bedstraw plant response rating (bedstraw; [6]) | Blackgrass plant response rating (blackgrass; [1]) | Blackgrass plant response rating (blackgrass; [5]) | B. signalgrass plant response rating (surinam grass; [1]) | B. signalgrass plant response rating (0 to 10 scale) (surinam grass; [2]) | B. signalgrass plant response rating (surinam grass; [3]) | B. signalgrass plant response rating (surinam grass; [5]) | B. signalgrass plant response rating (surinam grass; Rate 125 g/ha, Postemergence, scale 0 (no effect) to 10 (complete control)) | Plant response rating, B. signalgrass (surinam grass; Rate 250 g/ha, Postemergence, scale 0 to 10, 0 is no effect, 10 is complete control) | B. signalgrass plant response rating (surinam grass; Rate 500 g/ha, Postemergence, scale 0 to 10, 0 no effect, 10 complete control) | Corn plant response rating (corn; [1]) | Corn plant response rating (0 to 10 scale) (corn; [2]) | Corn plant response rating (corn; [3]) | Corn plant response rating (corn; [5]) | Corn plant response rating (corn; [6]) | Plant response rating (0 to 10; 0 is no effect, 10 is complete control), Corn (corn; Rate 250 g/ha, Postemergence) | Corn plant response rating (corn; [7]) | Giant foxtail plant response rating (giant foxtail; [5]) | Giant foxtail plant response rating (giant foxtail; [6]) | Plant response rating (0 to 10; 0 is no effect, 10 is complete control), Giant foxtail (giant foxtail; Rate 250 g/ha, Postemergence) | Morningglory plant response rating (morningglory; [1]) | Morningglory plant response rating (0 to 10 scale) (morningglory; [2]) | Morningglory plant response rating (morningglory; [3]) | Plant response rating, Morningglory (morningglory; [4]) | Redroot pigweed plant response rating (pigweed; [1]) | Redroot pigweed plant response rating (0 to 10 scale) (pigweed; [2]) | Redroot pigweed plant response rating (pigweed; [3]) | Plant response rating, Redroot pigweed (pigweed; [4]) | Redroot pigweed plant response rating (pigweed; [5]) | Redroot pigweed plant response rating (pigweed; [6]) | Rape plant response rating (rape; [1]) | Rape plant response rating (0 to 10 scale) (rape; [2]) | Rape plant response rating (rape; [3]) | Rape plant response rating (rape; [5]) | Rape plant response rating (rape; [6]) | Plant response rating (0 to 10; 0 is no effect, 10 is complete control), Rape (rape; Rate 250 g/ha, Postemergence) | Rape plant response rating (rape; [7]) | Soybean plant response rating (soybean; [1]) | Soybean plant response rating (0 to 10 scale) (soybean; [2]) | Soybean plant response rating (soybean; [3]) | Plant response rating, Soybean (soybean; [4]) | Sugarbeets plant response rating (sugar beet; [1]) | Sugarbeets plant response rating (0 to 10 scale) (sugar beet; [2]) | Sugarbeets plant response rating (sugar beet; [3]) | Plant response rating, Sugarbeets (sugar beet; [4]) | Sugarbeets plant response rating (sugar beet; [5]) | Sugarbeets plant response rating (sugar beet; [6]) | Plant response rating (0 to 10; 0 is no effect, 10 is complete control), Sugarbeets (sugar beet; Rate 250 g/ha, Postemergence) | Sugarbeets plant response rating (sugar beet; [7]) | Velvetleaf plant response rating (velvetleaf; [1]) | Velvetleaf plant response rating (velvetleaf; [3]) | Plant response rating, Velvetleaf (velvetleaf; [4]) | Velvetleaf plant response rating (velvetleaf; [5]) | Nutsedge plant response rating (purple nutsedge; [1]) | Nutsedge plant response rating (0 to 10 scale) (purple nutsedge; [2]) | Nutsedge plant response rating (purple nutsedge; [3]) | Plant response rating, Nutsedge (purple nutsedge; [4]) | Nutsedge plant response rating (purple nutsedge; [5]) | Nutsedge plant response rating (purple nutsedge; [6]) | Plant response rating (0 to 10; 0 is no effect, 10 is complete control), Nutsedge (purple nutsedge; Rate 250 g/ha, Postemergence) | Nutsedge plant response rating (purple nutsedge; [7]) | Rice plant response rating (rice; [8]) | Rice plant response rating (rice; [9]) | Rice plant response rating (rice; [10]) | Plant response rating, Rice (rice; [11]) | S. Flatsedge plant response rating (smallflower flatsedge; [8]) | S. Flatsedge plant response rating (smallflower flatsedge; [9]) | S. Flatsedge plant response rating (smallflower flatsedge; [10]) | S. Flatsedge plant response rating (smallflower flatsedge; Rate 500 g/ha, Pre-emergence, flood test species, scale 0 to 10 (0 no effect, 10 complete control)) | Ducksalad plant response rating (duck salad; [8]) | Ducksalad plant response rating (duck salad; [9]) | Ducksalad plant response rating (duck salad; [10]) | Plant response rating, Ducksalad (duck salad; [11]) | Barnyardgrass plant response rating (bamyardgrass; [8]) | Barnyardgrass plant response rating (bamyardgrass; [9]) | Barnyardgrass plant response rating (bamyardgrass; [10]) | Plant response rating, Barnyardgrass (bamyardgrass; [11])
4: Plant response rating (0 to 10; 0 is no effect, 10 is complete control), Redroot pigweed (pigweed; Rate 250 g/ha, Postemergence)
6: Plant response rating (0 to 10; 0 is no effect, 10 is complete control), Bedstraw (bedstraw; Rate 250 g/ha, Postemergence)
3: Plant response rating (0 to 10; 0 is no effect, 10 is complete control), Blackgrass (blackgrass; Rate 250 g/ha, Postemergence) | Giant foxtail plant response rating (giant foxtail; [7]) | Morningglory plant response rating (morningglory; [5]) | Morningglory plant response rating (morningglory; [6]) | Plant response rating (0 to 10; 0 is no effect, 10 is complete control), Morningglory (morningglory; Rate 250 g/ha, Postemergence) | Plant response rating, Rape (rape; [4])
10: Giant foxtail plant response rating (giant foxtail; [3]) | Plant response rating, Giant foxtail (giant foxtail; [4])
1: Soybean plant response rating (soybean; [5]) | Soybean plant response rating (soybean; [6]) | Plant response rating (0 to 10; 0 is no effect, 10 is complete control), Soybean (soybean; Rate 250 g/ha, Postemergence) | Velvetleaf plant response rating (velvetleaf; [6]) | Plant response rating (0 to 10; 0 is no effect, 10 is complete control), Velvetleaf (velvetleaf; Rate 250 g/ha, Postemergence)
5: Plant response rating, Blackgrass (blackgrass; [4])
8: Morningglory plant response rating (morningglory; [7])
2: Blackgrass plant response rating (0 to 10 scale) (blackgrass; [2]) | Blackgrass plant response rating (blackgrass; [3]) | Blackgrass plant response rating (blackgrass; [6]) | Plant response rating, B. signalgrass (surinam grass; [4]) | Plant response rating, Corn (corn; [4])
